Data: patent publication US5846944A (priority 1997, dated 1998)

Columns and labels:
[1] = tested on: Atherosclerotic plaques, New Zealand White rabbits; assay: Development of atherosclerotic plaques in rabbits on experimental diets (Example 1); assay type: in vivo; settings: control diet without cholesterol; flaxseed 15% of diet or SDG 15 mg/kg oral; 2 months
Method: (§1) Experiments were carried out on six to eight week old female New Zealand white rabbits weighing between 1.8 and 2.0 kg. All procedures relating to the care and welfare of test animals within this experimental protocol conformed to a Standard Operating Procedure (SOP) approved by the Council on Animal Care, University of Saskatchewan, Saskatoon, Saskatchewan, Canada.
(§2) Blood samples for measurement of triglycerides (TG), total cholesterol (TC), low density lipoprotein cholesterol (LDL-C), very-low density lipoprotein cholesterol (VLDL-C), and high density lipoprotein cholesterol (HDL-C) were taken before the animals were assigned to the experimental diet (T=0), and after 1 (T=1) and 2 months (T=2) on the experimental diet. The rabbits were sacrificed under pentabarbital anesthesia at the end of 2 months. The aorta was removed for the assessment of atherosclerotic plaques.
(§3) Much has been made of the importance of the composition of certain dietary fats toward health, particularly in relation to the degree of saturation of the fatty acid composition of the triglycerides.

[2] = tested on: New Zealand white rabbits; assay: Serum lipids (TC, LDL-C, VLDL-C, HDL-C, triglycerides) in rabbits on experimental diets (Example 1); assay type: in vivo
Method: as §1
as §2, with “plaques. […]” for “plaques.”

[3] = Body weight of hypercholesterolemic rabbits (Example 1); assay type: in vivo, New Zealand white rabbits
Method: as §1, §2, §3

[4] = tested on: New Zealand white rabbits; assay: Serum lipids in rabbits (Example 4); assay type: in vivo; settings: + 1% cholesterol
Method: as §1, §2

[5] = Body weight of hypercholesterolemic rabbits (Example 4); assay type: in vivo, New Zealand White rabbits; settings: + 1% cholesterol
Method: as §1, §2

[6] = tested on: hypercholesterolemic atherosclerosis, New Zealand White rabbits; assay: Comparison with other compounds: hypercholesterolemic atherosclerosis and total cholesterol in rabbits; assay type: in vivo; settings: compared with Vitamin E
Excerpt: The effect of Probucol on reducing atherosclerosis varied between 15-45%, depending upon the extent of the hypercholesterolemia.
The mechanism of action for Vitamin E is now generally accepted as preventing the development of hypercholesterolemic atherosclerosis through its antioxidant activity and its ability to scavenge free radicals in the bloodstream.

[7] = tested on: endotoxic shock, anesthetized dogs; assay: Endotoxic-shock-induced changes in cardiovascular function, contractility, MDA and antioxidant reserve in anesthetized dogs (Example 2); assay type: in vivo; settings: SDG 10 mg/kg i.v. 15 min prior to endotoxin 5 mg/kg i.v.
Method: The dogs were divided into three groups. Group I, (sham 3 hours, n=5). Group II, (ET, n=9), these dogs received endotoxin (5 mg/kg, intravenously). […] Mean aortic blood pressure (mAo), cardiac index (CI) a measure of cardiac function, and cardiac contractility (dp/dt at CPIP/PAW) were measured before (0 min) and at 30 min, 60 min, 90 min, 120 min and 180 min after endotoxin administration. At the end of 3 hours of experiment heart was removed for measurement of MDA and antioxidant reserve. Cardiac function and contractility were measured. Left ventricular MDA (LV-MDA) and left ventricular chemiluminescence (LV-CL) a measure of antioxidant reserve were also estimated.

[8] = tested on: streptozotocin-induced diabetes mellitus, Sprague-Dawley rats; assay: Streptozotocin-induced diabetes mellitus in rats (Example 3); assay type: in vivo; settings: for Plasma Glucose: mean + S.E., P<0.05 vs Group I and vs Group II
Method: Experimental diabetes mellitus was produced in Sprague-Dawley rats by injecting streptozotocin (STZ, 65 mg/kg) intravenously. Diagnosis of diabetes mellitus was established by testing for the presence of glucosuria with Ames Multi Stix (Miles Canada Inc., Etobicoke, Ontario) on the 3rd day after streptozotocin administration. The rats were divided into 4 groups.

[9] = tested on: diabetes mellitus, BBdp rats; assay: Spontaneously developing IDDM in diabetic prone BB (BBdp) rats (Example 5); assay type: in vivo; settings: SDG 22 mg/kg daily
Method: Two animal models of IDDM used were: streptozotocin-induced and diabetic prone (dp) BB rats (BBdp). The Zucker diabetic fatty rat (ZDF), an animal model closely resembling human NIDDM, was used for NIDDM.
BBdp rats develop diabetes melliuts spontaneously. […] Serum malondialdehyde (MDA) a measure of levels of oxygen radicals, and antioxidant reserve [pancreatic-chemiluminescence (Pancreatic-CL)] were assessed in blood and pancreas. Male 35-day old BBdp and age matched nondiabetic prone BE (BBn) rats were obtained from Animal Resources Division, Health Protection Branch (Ottawa, Canada).
Two rats from BBn and 4 rats from BBdp at the age of 35 days were sacrificed to measure serum glucose and MDA, and pancreatic MDA and antioxidant reserve. […] Diagnosis of diabetes mellitus was established by testing for the presence of glucosuria which was done every altenate day for 120 days or until glucosuria appeared. Once they developed diabetes or at the end of 120 days rats were anesthetized with nembutal sodium. Blood samples were taken to measure serum glucose and MDA, and pancreas were removed to assess pancreatic MDA and antioxidant reserve. None of the BBdp rats tested positive for glucosuria at 5 weeks and at that age the serum glucose in BBn and BBdp rats were 8.75±0.63 and 10.03±0.65 mmoles/L respectively.

[10] = tested on: NIDDM, Zucker diabetic fatty rat (ZDF); assay: NIDDM in Zucker diabetic fatty rats (Example 5); assay type: in vivo; settings: SDG 22 mg/kg daily orally in drinking water; two rats examined; two untreated rats showed clear signs
Method: Oxidative stress was assessed by measuring lipid peroxidation product malondialdehyde (MDA) a measure of levels of oxygen radicals, and tissue chemiluminescence (CL) an index of antioxidant reserve in blood and pancreatic tissue. Male 5-6 weeks old ZDF and age match Zucker lean control (ZLC) rats were obtained from Charles River, St. Constant, Quebec, Canada.
Rats were tested for glucosuria to establish diabetes at 5-6 weeks before they were assigned to various groups. None of the rats had glucosuria at this age. […] At the end of the protocol, under anesthesia, blood samples were taken to measure serum glucose and MDA, and pancreas were removed to assess pancreatic MDA and antioxidant reserve.

[11] = tested on: hypercholesterolemic atherosclerosis, New Zealand White rabbits; settings: Vitamin E 40 mg/kg, rabbits; cited from earlier work
[12] = 0 month, + 1% cholesterol group
[13] = 0 month, control diet without cholesterol
[14] = 1 month, + 1% cholesterol, flaxseed 15% or SDG 15 mg/kg oral
[15] = 1 month, control diet without cholesterol, flaxseed 15% or SDG 15 mg/kg oral
[16] = 2 months, + 1% cholesterol, flaxseed 15% or SDG 15 mg/kg oral
[17] = 2 months, control diet without cholesterol, flaxseed 15% or SDG 15 mg/kg oral
[18] = 0 months, SDG 5 mg/kg or SDG (89% pure) 11.24 mg/kg group
[19] = 1 month, SDG 5 mg/kg or SDG (89% pure) 11.24 mg/kg, orally daily
[20] = 2 months, SDG 5 mg/kg or SDG (89% pure) 11.24 mg/kg, orally daily
[21] = SDG 22 mg/kg orally for 3 days + STZ 65 mg/kg i.v., 12 rats/group
[22] = SDG 44 mg/kg orally for 3 days + STZ 65 mg/kg i.v., 10 rats/group

In the case of `COc1cc(CC(COC2OC(CO)C(O)C(O)C2O)C(COC2OC(CO)C(O)C(O)C2O)Cc2ccc(O)c(OC)c2)ccc1O` (stereo not drawn) [SDG, secoisolariciresinol diglucoside], the “Atherosclerotic plaques (% of total internal surface area)” value [1] was 0 % of total internal surface ar, the “Serum HDL-C levels” value [2, 12] was 0.62 ± 0.10 mmol/L and the “Serum LDL-C levels” value [2, 12] was 1.09 ± 0.19 mmol/L. The “Serum Triglyceride levels” value [2, 12] was 1.21 ± 0.09 mmol/L, the “Serum VLDL-C levels” value [2, 12] was 0.55 ± 0.04 mmol/L and the “Total serum cholesterol levels” value [2, 12] was 2.26 ± 0.25 mmol/L. The “Serum HDL-C levels” value [2, 13] was 0.58 ± 0.09 mmol/L, the “Serum LDL-C levels” value [2, 13] was 0.34 ± 0.09 mmol/L and the “Serum Triglyceride levels” value [2, 13] was 1.10 ± 0.13 mmol/L. For the same molecule, the “Serum VLDL-C levels” value [2, 13] was 0.50 ± 0.06 mmol/L, the “Total serum cholesterol levels” value [2, 13] was 1.42 ± 0.11 mmol/L and the “Serum HDL-C levels” value [2, 14] was 1.30 ± 0.18 mmol/L. For the same molecule, the “Serum LDL-C levels” value [2, 14] was 66.26 ± 7.23 mmol/L, the “Serum Triglyceride levels” value [2, 14] was 1.40 ± 0.17 mmol/L and the “Serum VLDL-C levels” value [2, 14] was 0.64 ± 0.08 mmol/L. The “Total serum cholesterol levels” value [2, 14] was 68.20 ± 7.41 mmol/L, the “Serum HDL-C levels” value [2, 15] was 0.60 ± 0.06 mmol/L and the “Serum LDL-C levels” value [2, 15] was 0.33 ± 0.06 mmol/L. The “Serum Triglyceride levels” value [2, 15] was 0.63 ± 0.02 mmol/L, the “Serum VLDL-C levels” value [2, 15] was 0.29 ± 0.01 mmol/L and the “Total serum cholesterol levels” value [2, 15] was 1.22 ± 0.11 mmol/L. For the same molecule, the “Serum HDL-C levels” value [2, 16] was 1.20 ± 0.48 mmol/L, the “Serum LDL-C levels” value [2, 16] was 43.25 ± 6.64 mmol/L and the “Serum Triglyceride levels” value [2, 16] was 1.83 ± 0.35 mmol/L. For the same molecule, the “Serum VLDL-C levels” value [2, 16] was 0.83 ± 0.16 mmol/L, the “Total serum cholesterol levels” value [2, 16] was 45.18 ± 6.68 mmol/L and the “Serum HDL-C levels” value [2, 17] was 0.50 ± 0.00 mmol/L. The “Serum LDL-C levels” value [2, 17] was 0.25 ± 0.04 mmol/L, the “Serum Triglyceride levels” value [2, 17] was 0.60 ± 0.12 mmol/L and the “Serum VLDL-C levels” value [2, 17] was 0.27 ± 0.02 mmol/L. The “Total serum cholesterol levels” value [2, 17] was 1.12 ± 0.10 mmol/L, the Body weight [3, 12] was 1.25 ± 0.03 kg and the Body weight [3, 13] was 1.75 ± 0.02 kg. The Body weight [3, 14] was 1.98 ± 0.08 kg, the Body weight [3, 15] was 2.34 ± 0.04 kg and the Body weight [3, 16] was 2.35 ± 0.10 kg. The “Serum HDL-C levels” value [4, 18] was 0.83 ± 0.08 mmol/L, the “Serum LDL-C levels” value [4, 18] was 0.89 ± 0.14 mmol/L and the Serum Triglyceride levels [4, 18] was 1.30 ± 0.19 mmol/L. For the same molecule, the “Serum VLDL-C levels” value [4, 18] was 0.59 ± 0.09 mmol/L, the “Total serum cholesterol levels” value [4, 18] was 2.31 ± 0.19 mmol/L and the “Serum HDL-C levels” value [4, 19] was 0.76 ± 0.42 mmol/L. For the same molecule, the “Serum LDL-C levels” value [4, 19] was 75.98 ± 9.04 mmol/L, the Serum Triglyceride levels [4, 19] was 0.97 ± 0.16 mmol/L and the “Serum VLDL-C levels” value [4, 19] was 0.44 ± 0.08 mmol/L. The “Total serum cholesterol levels” value [4, 19] was 77.24 ± 7.22 mmol/L, the “Serum HDL-C levels” value [4, 20] was 0.48 ± 0.10 mmol/L and the “Serum LDL-C levels” value [4, 20] was 58.68 ± 9.69 mmol/L. For the same molecule, the Serum Triglyceride levels [4, 20] was 0.87 ± 0.20 mmol/L, the “Serum VLDL-C levels” value [4, 20] was 0.39 ± 0.09 mmol/L and the “Total serum cholesterol levels” value [4, 20] was 59.61 ± 9.8 mmol/L. The Body weight [5, 18] was 1.47 ± 0.02 kg, the Body weight [5, 19] was 2.45 ± 0.04 kg and the “reduction of hypercholesterolemic atherosclerosis and of total blood cholesterol” value [6] was “accomplishes both”. The “Mean aortic blood pressure (mAo), ET-induced fall” value [7] was “prevented the ET-induced fall in mAO up to 30 min”, the “Left ventricular MDA (LV-MDA), ET-induced increase” value ([7]; 3 hours) was “prevented the ET-induced increase in LV-MDA” and the “antioxidant reserve (LV-CL), ET-induced decrease” value ([7]; 3 hours) was “prevented the ET-induced decrease in antioxidant reserve”. The “# Rats Developing Diabetes” value [8, 21] was 2 rats, the “percent of rats developing diabetes mellitus” value [8, 21] was 16.6% and the “Plasma Glucose” value ([8]; SDG 22 mg/kg orally for 3 days + STZ) was 9.63 ± 0.71 mmol/L. For the same molecule, the “preventing the development of diabetes, 44 mg/kg compared with 22 mg/kg” value ([8]; SDG 44 mg/kg) was “more effective than in the dose of 22 mg/kg”, the “# Rats Developing Diabetes” value [8, 22] was 1 rats and the “percent of rats developing diabetes mellitus” value [8, 22] was 10%. For the same molecule, the “Plasma Glucose” value ([8]; SDG 44 mg/kg orally for 3 days + STZ) was 10.01 ± 0.76 mmol/L, the “plasma glucose levels compared with streptozotocin-treated group” value ([8]; SDG 22 and 44 mg/kg) was “much lower than those in streptozotocin-treated group” and the “prevention of the development of STZ-induced diabetes mellitus” value ([8]; SDG 22 and 44 mg/kg, overall) was “approximately 81%”. For the same molecule, the “rats that developed diabetes” value ([9]; orally in drinking water, up to 120 days, untreated BBdp 72.7%) was 21.4%, the “prevention of the development of diabetes” value ([9]; orally in drinking water, vs untreated BBdp) was 70.55% and the “Pancreatic / serum MDA” value ([9]; both nondiabetic and diabetic, vs untreated BBdp) was “lower in the SDG-treated group in both nondiabetic and diabetic as compared to untreated BBdp rats”. The “serum glucose, rats that developed diabetes” value ([9]; compared with nondiabetic SDG-treated BBdp) was “higher than those not developing diabetes in this group”, the onset of diabetes ([9]; rats that developed diabetes) was “delayed the onset of diabetes in ones that developed diabetes” and the “Pancreatic antioxidant reserve (Pancreatic-CL)” value ([9]; untreated BBdp vs control or SDG-treated group) was “slightly lower in the untreated group as compared to the control or SDG-treated group but were not significant”. The signs of diabetes [10] was “showed no signs of diabetes”.
For Vitamin E, the “reduction of hypercholesterolemic atherosclerosis” value [11] is listed as “up to 73%” and the total blood cholesterol [11] is listed as “without reducing the total blood cholesterol”.
